# Experimental data taken from publication PMC10732398 (PLOS Pathogens, 2023).
# Tested on: ⍺4β7
# Experiment: SPR: inhibition by linear peptides of soluble ⍺4β7 binding to a CD4 D1D2 coated surface
# Conditions: SPR peptide scan (Fig 4A); ⍺4β7 pre-incubated with peptide 2 hours at room temperature; 1 mM MnCl2
# Source text: We next modified our SPR -based assay in order to map the site(s) on CD4 that interacts with ⍺4β7. In this modified assay ⍺4β7 was passed over a surface coated with CD4 D1D2 in the absence or presence of 42 overlapping 15 amino acid linear peptides spanning CD4 residues 1–178 (S2 Table). Two peptides located in CD4 D1, #7 and #9, inhibited ⍺4β7 binding by ~17% (Fig 4A). The final peptide in CD4 D2, p42, inhibited binding by ~ 66%. Linear peptides often lack the true conformation of the protein from which they are derived. Additionally, the kinetic format of our assay allows for ligand-analyte rebinding during the association phase. These features render this inhibition assay somewhat insensitive. Nevertheless, the dynamic range of this assay is sufficient to identify interactions that are worthy of follow-up investigation (S4 Fig). As such, our preliminary findings raised the possibility that both D1 and D2 domains of CD4 interact with ⍺4β7. Of note, MAdCAM-1 and VCAM-1, like CD4, present two tandemly arrayed N-terminal IgSF domains (Fig 4B). In both cases, binding to ⍺4β7 is mediated by a 1° binding site in their D1s and an accessory site, located in their D2s. The term accessory is a misnomer insofar as these sites plays an essential role in ⍺4β7 binding. Follow-up experiments focused on p9 and p42, which we herein refer to as pCD4^33-47 and pCD4^165-178. pCD4^33-47 partially overlaps the D1 C’C” β-strands and a connecting loop. The primary gp120 contact site (Phe^43) lies at the N-terminal edge of this loop (Fig 4C). pCD4^165-178 includes Q^165 and K^166. These residues lie primarily within the G β-strand of D2, close to the boundary with D3. Because peptide inhibition assays sometime mediate nonspecific effects, further analysis was performed to better establish the role of these two regions of CD4 in binding to ⍺4β7.
# To determine if this is the case, we employed an SPR -based assay. Biosensor surfaces were coated with either CD4 D1D2 or a 42 aa cyclic V2 peptide derived from the subtype E 92TH023 gp120 (cV2 92TH023). A third surface coated with MAdCAM-Ig was employed as a positive control. Soluble ⍺4β7 was passed over these surfaces. We then evaluated the capacity of staggered 15 aa peptides that span either CD4 D2 or gp120 V2 to inhibit this interaction (Fig 7A).
# Experiments were performed using a Biacore 3000 instrument (Cytiva Life Sciences) using CM4 or CM5 sensor chips. The data were evaluated using BIAevaluation 4.1.1 software (Cytiva Life Sciences). The chip surface was activated by injecting 35 μl of a 1:1 mixture of 0.05 M N-hydroxysuccinimide and 0.2 M N-ethyl-N-(dimethylaminopropyl) carbodiimide at 5 μl/min. NeutrAvidin, HIV gp120, sCD4 (D1D2) or Hu-MAdCAM-Ig (R&D Systems) at concentrations of 5 μg/ml in 10mM NaOAc, pH 4.5, were immobilized to 250–750 resonance units (RU). After the proteins were immobilized to the desired densities, unreacted sites were blocked with 35 μl of 1 M Tris-HCl (pH 8.0). Biotinylated cyclic V2 peptides (1 μg/ml in 20 mM Tris-HCl, pH 8.0) were bound to the NeutrAvidin surfaces to densities of approximately 250–300 RU. One surface was activated and blocked without ligand as a control surface for non-specific binding. Signal from the control surface was subsequently subtracted. Running buffer was HBS (pH 7.4), 1 mM MnCl2, 0.005% Tween- 20, 0.05% soluble carboxymethyl-dextran. Binding experiments were carried out at a flow rate of 25 μl/min at 25°C. After a 2 min injection, the surface was washed for an additional 2 min in running buffer allowing dissociation of the bound ligand from the surface. The surfaces were regenerated by multiple injections of 4.5 M MgCl2 at a flow rate of 100 μl/min. Inhibition of ⍺4β7 binding by linear V2-loop and CD4 derived peptides was carried out by pre-incubating ⍺4β7 with the peptides in running buffer at the indicated concentrations for 2 hours at room temperature prior to passing them over the prepared surfaces as described above. […]
sequence,measurement,value
"QKKVEFKIDIVVLA [CD4 P42, linear CD4 D2 peptide, residues 165-178, G β-strand]",inhibition of ⍺4β7 binding to CD4 D1D2 coated surface,~ 66%
